Source: patent US5876676A, “Preservation of blood platelets” (priority 1996, dated 1999)

Experiments:
[1] = test system: pointed end actin nuclei in soluble fraction of platelet lysates; assay: Calcium-sensitive soluble nucleation activity in supernatants of platelet lysates (pyrene-actin assembly); type: biochemical, human
Method: (§1) The effect of cell lysates on the rate and extent of pyrene-labeled rabbit skeletal muscle actin was determined as described previously (Hartwig, J., and P. Janmey, 1989 Biochim. Biophys. Acta. 1010:64-71). Suspensions of resting or thrombin-activated cells at concentrations of 1.4×10^8 /ml were permeabilized by the addition of 0.1 volume of 60 mM Pipes, 25 mM Hepes, 10 mM EGTA, 2 mM MgCl2, 0.75% Triton and 42 nM leupeptin, 10 mM benzamidine, and 0.123 mM aprotinin to inhibit proteases (Schliwa, J., et al., 1981 Proc. Natl. Acad. Sci. USA 80:5417-5420). 100 ul of detergent lysate was added to 190 ul of 100 mM KCl, 2 mM MgCl2, 0.5 mM ATP, 0.1 mM EGTA, 0.5 mM dithiothreitol, and 10 mM Tris, pH 7.0 and the polymerization rate assay was started by the addition of monomeric pyrene-labeled rabbit skeletal muscle actin to a final concentration of 2 uM. The relative contribution of nuclei with barbed or pointed ends in the cell lysates was determined by adding 2 uM cytochalasin B to the pyrene nucleation assay system. […] Activity not inhibited by cytochalasin B is considered pointed end assembly. The stability of nucleation activity in cell lysates was tested by comparing the stimulatory effect of fresh lysate on actin assembly with lysates allowed to stand for 30 s to 30 min at 37° C. before addition to the assembly assay. To determine if the measured stimulation of actin assembly and its decay with time was due to the growth of pyrene-actin addition onto cellular filaments subject to depolymerization in the diluted lysate, 0.1 uM phalloidin or phallacidin was added to the cell lysates during their preparation to stabilize the filaments. As shown in the results, all nucleation activity present in resting and activated cells was associated with the detergent-insoluble cytoskeleton. However, we also determined that the soluble phase from cells permeabilized with detergent in the presence of EGTA contained calcium dependent nucleation activity. Detergent lysates from resting and thrombin-activated cells (30 s, 1 U/ml) were centrifuged at 10,000 g for 2 min at room temperature in a microcentrifuge. The supernatant was removed and added to the pyrene-based nucleation assay in the presence of 1 mM EGTA or CaCl2. The amount of pointed end activity in these soluble extracts was determined by adding a final concentration of 2 uM cytochalasin B to the pyrene-actin assembly assay.
In reference to Table II, lysates were prepared from resting thrombin-treated cells with detergent and centrifuged in a Sorvall Microspin 12S at 13,000 rpm for 1 min. Nucleation activity remaining in the supernatant after removal of the cytoskeletal fraction was determined. […] The data are expressed as mean±SD, n=4. […]

[2] = test system: mice; details: cited from earlier work
[3] = test system: cells in vitro; details: cited from earlier work
[4] = test system: barbed end of actin filaments; assay: Pyrene-labeled actin assembly (nucleation) assay in detergent lysates of resting and thrombin-activated platelets; type: biochemical, human
Method: as §1, with “The stability of nucleation activity in cell lysates was tested by comparing the stimulatory effect of fresh lysate on actin assembly with lysates allowed to stand for 30 s to 30 min at 37° C. before addition to the assembly assay.” left out, “As shown in the results, all nucleation activity present in resting and activated cells was associated with the detergent-insoluble cytoskeleton.” left out, “Detergent lysates from resting and thrombin-activated cells (30 s, 1 U/ml) were centrifuged at 10,000 g for 2 min at room temperature in a microcentrifuge. The supernatant was removed and added to the pyrene-based nucleation assay in the presence of 1 mM EGTA or CaCl2.” left out
In reference to Table I, gel-filtered platelets were suspended to a concentration of 1.4×10^8 /ml in platelet buffer, rested for 30 minutes at 37° C., and then treated with or without 1 U/ml of thrombin for 15 s. […] Data are expressed as mean±SD, n=4.

[5] = test system: platelets; assay: Nucleation activity of cytoskeletons from platelets pre-incubated with cytochalasin B (pyrene-actin assembly, Table III); type: cell-based, human; details: for Assembly rate (barbed end): cytochalasin washed out; for Assembly rate (barbed end) / Assembly rate (pointed end): n=4
Method: The effect of inhibiting barbed end actin assembly in thrombin-activated cells before detergent lysis on the amount of nucleation activity was determined by preincubating resting platelet suspensions with 2 uM cytochalasin B for 5 min. Because it was necessary to wash out the cytochalasin B from some of the cytoskeletons before addition of the cell lysates to the pyrene assembly assay, the cells were first attached to glass coverslips while still in the presence of cytochalasin B. This was accomplished by sedimenting 0.3 ml of cell suspension onto a 12 mm round glass coverslip for 5 min at 250 g. Individual coverslips were removed, treated with thrombin for 15 s in the presence of cytochalasin B, permeabilized with 1× PHEM-Triton buffer containing 2 uM cytochalasin B for 15 s and then washed in PHEM buffer in the presence or absence of cytochalasin B. Coverslips were then immediately assayed for their ability to promote actin filament assembly as previously described by us using glass adherent macrophage cytoskeletons (Hartwig, J., and P. Janmey, 1989 Biochim. Biophys. Acta. 1010:64-71).
In reference to Table III, resting platelets were incubated with 2 μM cytochalasin B for 5 min, then adhered by centrifugation to 12-mm round glass coverslips coated with polylysine. Cells on the coverslips were exposed to 1 U/ml of thrombin for 30 s in the presence of cytochalasin B and then permeabilized with PHEM-Triton buffer. […] There were 4.2×10^7 platelets per assay. The data are expressed as mean ± SD, n=4. The barbed end assembly rate, initial pointed end addition rate and initial barbed end addition rate were as described in Table I.

[6] = following intracellular microinjection; cited from earlier work
[7] = Activated (thrombin), + 2 μM CB, supernatant, mean±SD, n=4
[8] = Activated: 2 μM cytochalasin B, 1 U/ml thrombin 30 s
[9] = Activated: 2 μM cytochalasin B, then 1 U/ml thrombin 30 s
[10] = Resting platelets incubated with 2 μM cytochalasin B
[11] = Resting platelets incubated with 2 μM cytochalasin B 5 min

## C=C1C(C)C2C(Cc3ccccc3)NC(=O)C23OC(=O)C=CC(O)CCCC(C)CC=CC3C1O (stereo not shown) [cytochalasin B]
[1]; 2 uM cytochalasin B, soluble fraction, thrombin-activated platelets
  Calcium-dependent soluble actin nucleation activity: completely unaffected
[1]; [7]
  Assembly Rate: 0.55 ± 0.02 nM/s
  Pointed nuclei/platelet: 5,000 ± 250
  Subunits added to pointed ends: 1.0 ± 0.05 ×10^10 s^-1
[2]; intraperitoneal
  LD50: 50 mg/kg
  Time to clearance from all tissues but liver: ≤ 24 h
[2]; within a few minutes following injection
  Recovery of injected cytochalasin B: 35%
[3]; 2 h
  MNTC: ≤ 200 µM
  Non-cytotoxic concentration: up to 100 ug/ml
[3]
  Cytotoxicity on prolonged exposure: reversible cytotoxicity
[4]; 2 uM cytochalasin B
  Pyrene actin assembly onto actin filaments at the barbed end: completely inhibited
[4]; 2 uM cytochalasin B added to assay, lysates of platelets activated with 1 U/ml thrombin
  Stimulatory effect of lysates on pyrene-actin assembly rate: abolished
[4]; 2 uM cytochalasin B added to lysates, resting platelets
  Effect on nucleation activity of lysates from resting cells: only a small effect
[5]; 2 μM cytochalasin B, resting platelets
  Nucleation activity after cytochalasin B treatment of resting cells: did not by itself result in nucleation activity
[5]; [8]
  Barbed nuclei/platelet: 380
  Pointed nuclei/platelet: 1,980
  Subunits added to barbed ends: 3.9e+11 s⁻¹
  Subunits added to pointed ends: 9.95e+10 s⁻¹
[5]; [9]
  Assembly rate (barbed end): 1.59 nM/s
  Assembly rate (pointed end): 0.55 nM/s
[5]; [10]
  Barbed nuclei/platelet: 50
  Pointed nuclei/platelet: 1,980
  Subunits added to barbed ends: 2e+10 s⁻¹
  Subunits added to pointed ends: 9.95e+10 s⁻¹
[5]; [11]
  Assembly rate (barbed end): 0.18 nM/s
  Assembly rate (pointed end): 0.55 nM/s
[5]; cytochalasin present during activation, washed away before assay
  Stimulation of pyrene-actin assembly rate by thrombin-activated, cytochalasin B-treated cytoskeletons compared with resting cells incubated with cytochalasin B: four-fold

## O=C(O)CN(CC(=O)O)c1ccccc1OCCOc1ccccc1N(CC(=O)O)CC(=O)O [BAPTA, 1,2-bis(2-aminophenoxy) ethane N,N,-N',N'-tetraacetic acid]
[6]
  Binding to membranes or toxic effects: little or no
